How the values were obtained:
Type in all cases: in vivo
[1] = test system: Alopecurus myosuroides (ALOMY); assay: B1 Pre-emergence herbicidal activity; set-up: key: 5=total damage to plant; 0=no damage to plant; details: pre-emergence application, rate 1000 g/ha, evaluated after 13 days
Outline: (§1)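 Seeds sown in standard soil in pots, held one day in a glasshouse (24/16 °C day/night, 14 h light, 65% humidity), then sprayed pre-emergence with compound in acetone/water (50:50) with 0.5% Tween 20. Plants grown under the same conditions, watered twice daily; damage scored after 13 days (0 = none, 5 = total).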

Avena fatua (AVEFA) [2] = assay: B1 Pre-emergence herbicidal activity; set-up: key: 5=total damage to plant; 0=no damage to plant; details: pre-emergence application, rate 1000 g/ha, evaluated after 13 days
Outline: as §1

[3] = test system: Triticum aestivium (TRZAW); assay: B1 Pre-emergence herbicidal activity; set-up: key: 5=total damage to plant; 0=no damage to plant; details: pre-emergence application, rate 1000 g/ha, evaluated after 13 days
Outline: as §1

[4] = test system: Echinochloa crus-galli (ECHCG); assay: B1 Pre-emergence herbicidal activity; set-up: key to Pre-emergence herbicidal activity, ECHCG (damage score 0-5): 5=total damage to plant; 0=no damage to plant; details: pre-emergence application, rate 1000 g/ha, evaluated after 13 days
Outline: as §1

Lolium perenne (LOLPE) [5] = assay: B1 Pre-emergence herbicidal activity; set-up: key to Pre-emergence herbicidal activity, LOLPE (damage score 0-5): 5=total damage to plant; 0=no damage to plant; details: pre-emergence application, rate 1000 g/ha, evaluated after 13 days
Outline: as §1

Setaria fabenr (SETFA) = assay: B1 Pre-emergence herbicidal activity; set-up: key to Pre-emergence herbicidal activity, SETFA (damage score 0-5): 5=total damage to plant; 0=no damage to plant; details: pre-emergence application, rate 1000 g/ha, evaluated after 13 days
Outline: as §1

Avena fatua (AVEFA) [6] = assay: B2 Post-emergence herbicidal activity; details: post-emergence application, rate 1000 g/ha, evaluated after 13 days
Outline: (§2)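 Plants grown 8 days in standard soil in pots, then sprayed post-emergence with active ingredient in acetone/water (50:50) with 0.5% Tween 20. Glasshouse at 24/16 °C day/night, 14 h light, 65% humidity, watered twice daily. Damage scored after 13 days on a 0–5 scale (5 = total damage).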

[7] = test system: Echinochloa crus-galli (ECHCG); assay: B2 Post-emergence herbicidal activity; set-up: key to Post-emergence herbicidal activity, ECHCG (damage score 0-5): 5=total damage to plant; 0=no damage to plant; details: post-emergence application, rate 1000 g/ha, evaluated after 13 days
Outline: as §2

Lolium perenne (LOLPE) [8] = assay: B2 Post-emergence herbicidal activity; details: post-emergence application, rate 1000 g/ha, evaluated after 13 days
Outline: as §2

[9] = test system: Alopecurus myosuroides (ALOMY); assay: B2 Post-emergence herbicidal activity; set-up: key: 5=total damage to plant; 0=no damage to plant; details: post-emergence application, rate 1000 g/ha, evaluated after 13 days
Outline: as §2

Setaria fabenri (SETFA) = assay: B2 Post-emergence herbicidal activity; set-up: key: 5=total damage to plant; 0=no damage to plant; details: post-emergence application, rate 1000 g/ha, evaluated after 13 days
Outline: as §2

[10] = test system: Triticum aestivium (TRZAW); assay: B2 Post-emergence herbicidal activity; set-up: key: 5=total damage to plant; 0=no damage to plant; details: post-emergence application, rate 1000 g/ha, evaluated after 13 days
Outline: as §2

SMILES	Pre-emergence herbicidal activity, ALOMY (damage score 0-5) [1]	Pre-emergence herbicidal activity, AVEFA (damage score 0-5) (Avena fatua (AVEFA) [2])	Pre-emergence herbicidal activity, TRAZW (damage score 0-5) [3]	Pre-emergence herbicidal activity, ECHCG (damage score 0-5) [4]	Pre-emergence herbicidal activity, LOLPE (damage score 0-5) (Lolium perenne (LOLPE) [5])	Pre-emergence herbicidal activity, SETFA (damage score 0-5) (Setaria fabenr (SETFA))	Post-emergence herbicidal activity, AVEFA (damage score 0-5) (Avena fatua (AVEFA) [6])	Post-emergence herbicidal activity, ECHCG (damage score 0-5) [7]	Post-emergence herbicidal activity, LOLPE (damage score 0-5) (Lolium perenne (LOLPE) [8])	Post-emergence herbicidal activity, ALOMY (damage score 0-5) [9]	Post-emergence herbicidal activity, SETFA (damage score 0-5) (Setaria fabenri (SETFA))	Post-emergence herbicidal activity, TRAZW (damage score 0-5) [10]
O=C(Nc1ccc(-c2cncc(F)c2)nc1C(F)(F)F)c1cc(F)c(F)cc1F [Compound C33]	0	1	0	1	1	2	2	2	1	0	3	0
CC(C)(C)C(=O)Nc1ccc(-c2cncc(F)c2)nc1C(F)(F)F [Compound C34]	0	0	0	2	0	5	3	4	2	1	5	1
O=C(CCl)Nc1ccc(-c2cncc(F)c2)nc1C(F)(F)F [Compound C35]	0	1	0	4	1	4	3	5	2	0	5	0
CC(=O)OC(C)(C)C(=O)Nc1ccc(-c2cncc(F)c2)nc1C(F)(F)F [Compound C36]	0	1	0	4	1	4	2	5	1	0	5	1
CC(C)=CC(=O)Nc1ccc(-c2cncc(F)c2)nc1C(F)(F)F [Compound C37]	0	1	0	4	1	5	3	5	2	0	5	0
CC(C)=CC(=O)N(C(=O)C=C(C)C)c1ccc(-c2cncc(F)c2)nc1C(F)(F)F [Compound C38]	0	0	0	4	0	5	3	4	2	0	5	0
C=CCN(C(=O)CC)c1ccc(-c2cncc(F)c2)nc1C(F)(F)F [Compound C39]	0	2	0	4	1	5	3	5	2	0	5	1
CCOC(=O)CC(=O)Nc1ccc(-c2cncc(F)c2)nc1C(F)(F)F [Compound C42]	0	2	0	4	1	4	4	5	2	0	5	1
CCC(=O)N(C(=O)CC)c1ccc(-c2cncc(F)c2)nc1C(F)(F)F [Compound C44]	0	2	0	5	1	4	3	5	3	1	5	0
O=C(Nc1ccc(-c2cncc(F)c2)nc1C(F)(F)F)c1ccccn1 [Compound C45]	0	2	0	5	1	4	2	5	2	0	5	1
O=C(Nc1ccc(-c2cncc(F)c2)nc1C(F)(F)F)c1ccccc1F [Compound C46]	0	1	0	2	1	4	2	3	1	0	4	0
O=C(Nc1ccc(-c2cncc(F)c2)nc1C(F)(F)F)c1cccs1 [Compound C47]	1	2	0	5	1	4	4	5	3	1	5	0

— patent publication US11230538B2, “Herbicides” (SYNGENTA PARTICIPATIONS AG, priority 2016, dated 2022)
